Measurements: the NIST ThermoML archive (doi:10.1021/je900347f)

Assay: excess molar enthalpy (molar enthalpy of mixing); xn = mol fraction of the nth substance listed
Conditions: 308.15 K, 101 kPa, Liquid, Flow calorimetry

C1CCNCC1 [piperidine] + C1CCOCC1
Conditions | excess molar enthalpy [kcal/mol]
x2 = 0.102 | 0.0249
x2 = 0.196 | 0.0435
x2 = 0.301 | 0.0581
x2 = 0.397 | 0.0667
x2 = 0.497 | 0.0698
x2 = 0.598 | 0.0679
x2 = 0.7 | 0.06
x2 = 0.801 | 0.0464
x2 = 0.893 | 0.0277

C1CCNCC1 [piperidine] + C1CCCCC1
Conditions | excess molar enthalpy [kcal/mol]
x2 = 0.101 | 0.0617
x2 = 0.201 | 0.114
x2 = 0.3 | 0.155
x2 = 0.4 | 0.186
x2 = 0.499 | 0.202
x2 = 0.601 | 0.202
x2 = 0.679 | 0.19
x2 = 0.801 | 0.152
x2 = 0.901 | 0.0935

C1CCOCC1 [tetrahydropyran] + C1CCCCC1
Conditions | excess molar enthalpy [kcal/mol]
x2 = 0.101 | 0.0375
x2 = 0.2 | 0.0703
x2 = 0.3 | 0.0985
x2 = 0.4 | 0.117
x2 = 0.499 | 0.126
x2 = 0.606 | 0.124
x2 = 0.699 | 0.11
x2 = 0.8 | 0.0848
x2 = 0.9 | 0.0473
